Common to all, as to format: cell-based, Phaffia rhodozyma
Assay [1] concerns P. rhodozyma. Put plainly: Morphological selection on agent-containing medium, colonies assayed for pigment. An excerpt:
More specifically, the inventors have discovered that by subjecting a naturally occurring or mutated strain of P. rhodozyma to growth in the presence of a metabolic pathway inhibitor, particularly a main respiratory pathway inhibitor, in the presence of an influence such as an agent or environmental condition which triggers a secondary respiratory pathway, or morphological selection using a selecting agent, and particularly an antibiotic, a cytochrome B inhibitor, or a terpenoid synthetic pathway inhibitor as a selecting agent, a directed and specific selection of highly pigmented P. rhodazyma takes place. For example, plating of the pink yeast, P. rhodozyma, to agar containing an antibiotic, a cytochrome B inhibitor, or a terpenoid synthetic pathway inhibitor gave rise to colonies of unusual morphology characterized by a nonpigmented lower smooth surface that developed highly pigmented vertical papillae after 1 to 2 months.
The sequence of mutations and selections with which the highest astaxanthin yielding strains to date have been produced is shown in FIG. 2. With reference to FIG. 2, the naturally occurring parent 67-385, obtained from the American Type Culture Collection ATCC No. 24230, was assayed as containing 200-600 μg/g dry weight of yeast in 6 day growth. 67-385 was subjected to antimycin selection, and higher pigmented progeny, referred to as 10′-887J0 were obtained. The first mutant papillus dissected from the basal colony contained approx. 700 μg total carotenoid/g yeast compared to the parental strain which had 300 to 400 μg/g. 10′-887J0 was assayed to have an astaxanthin content of 960 μg/g dry weight of yeast in 6 day growth. 10′-887J0 was replated to YM agar containing 50 μM antimycin and second generation antimycin colonies were selected. One of these produced 1200 μg/g and another produced 1450 μg/g. […]
After harvest from 30 ml growth medium, the cells are washed in water and resuspended in 30 ml of water. The optical density is measured to determine growth. […]

Assay [2] concerns P. rhodozyma. An excerpt:
One of the selected progeny (IGI-887J0; see FIG. 2 and accompanying text) was characterized physiologically.
Sensitivities of the mutants to various respiratory inhibitors including antimycin A, theonyltrifluoroacetine, sodium azide, hydrogen peroxide and sodium cyanide were examined. These inhibitors affect different regions of the respiratory chain.

Assay [3] has as its system P. rhodozyma. Nature of the assay: Inhibitors incorporated into yeast malt extract medium: killing, growth and colony colour. The settings on record: for killing of P. rhodozyma: incorporated into yeast malt extract medium agar; for influence on pigmentation of P. rhodozyma: YM plates or liquid growth media. From the text: The inventors also tried treating P. rhodozyma with several inhibitors of electron transport including thenoyltrifluoroacetone (TTFA), antimycin A, and sodium cyanide.

Assay [4] has as its system P. rhodozyma. The description is as above. The conditions noted are these: nicotine 1 mM, imidazole 4 mM, 2-methylimidazole 1 mM, morpholine 10 mM.

The record followed here is patent US7723066B1, “Processes for in vivo production of astaxanthin and phaffia rhodozyma yeast of enhanced astaxanthin content” (Igene Biotechnology, Inc., priority 1988, dated 2010).

Read-outs that look alike come from different tables or passages of the source.

Consider `C[C@@]1(O)CCOC(=O)C1` [mevalonic acid lactone], for which the “pigment of resistant mutant” value in the assay on P. rhodozyma [1] (25 mM mevalonic acid lactone resistant mutant of NTG-mutagenized ATCC 24202, control 275 μg/g) was 540 µg/g.
As for `OO` [hydrogen peroxide], in the assay on P. rhodozyma [2], the “sensitivity of mutant compared with natural isolate” value is “more sensitive to killing” and the “sensitivity of the antimycin mutants compared with parental strain” value (“sensitivity … compared with parental strain” below) is “quite sensitive”.
`Clc1ccc(COC(Cn2ccnc2)c2ccc(Cl)cc2Cl)c(Cl)c1` (centres unmarked) [miconazole]: the “killing of P. rhodozyma” value in the assay on P. rhodozyma [3] is recorded as “significant killing”.
As for `CC(=O)N1CCN(c2ccc(OCC3COC(Cn4ccnc4)(c4ccc(Cl)cc4Cl)O3)cc2)CC1` (centres unmarked) [ketoconazole], the “killing of P. rhodozyma” value with P. rhodozyma [3] is listed as “significant killing”.
`[N-]=[N+]=[N-].[Na+]` [azide, sodium azide]: the “killing of naturally occurring P. rhodozyma by inhibitors of electron transport” value in the assay on P. rhodozyma [3] was “relatively insensitive”. Moreover, in the assay on P. rhodozyma [2], the “sensitivity of mutant compared with natural isolate” value is on record as “did not differ” and the “sensitivity … compared with parental strain” value is recorded as “did not differ in sensitivity”.
Regarding `CN1CCCC1c1cccnc1` (centres unmarked) [nicotine], in the assay with P. rhodozyma [4], the “color of the colonies” value is listed as “did visually change the color of the colonies” and the growth result is “did not impair growth”.
For `C[C@@H]1[C@H](O)[C@@H](C)/C=C/C=C/CC/C=C/C=C/C=C/C=C/C(O[C@H]2O[C@H](C)[C@@H](O)[C@H](N)[C@@H]2O)CC2O[C@](O)(CC(O)C(O)CCC(O)CC(O)CC(O)CC(=O)O[C@H]1C)CC(O)C2C(=O)O` (some centres unmarked) [nystatin], the “pigment of highest mutant” value with P. rhodozyma [1] (mutant of ATCC 24202 from 3 and 5 μg/ml nystatin, control 270 μg/g) stood at 400 µg/g.
As for `c1c[nH]cn1` [imidazole], in the assay on P. rhodozyma [3], the “color of the colonies” value is listed as “did visually change the color of the colonies” and the growth entry was “did not impair growth”.
In the case of `Cc1ncc[nH]1` [2-methylimidazole], in the assay on P. rhodozyma [4], the “color of the colonies” value was “did visually change the color of the colonies” and the growth result is listed as “did not impair growth”.
Turning to `O=C(CC(=O)C(F)(F)F)c1cccs1` [TTFA, thenoyltrifluoroacetone], the “influence on pigmentation of P. rhodozyma” value in the assay on P. rhodozyma [3] is reported as “do not seem to significantly influence pigmentation”. Moreover, the “killing of naturally occurring P. rhodozyma by inhibitors of electron transport” value in the assay on P. rhodozyma [3] (naturally occurring P. rhodozyma) is given as “substantially killed by low concentrations”. Further, the “sensitivity … compared with parental strain” value in the assay on P. rhodozyma [2] (antimycin-isolated mutants) is given as “quite sensitive”. Besides, in the assay with P. rhodozyma [2] (strain IGI-887J0), the “sensitivity of mutant compared with natural isolate” value is reported as “increased sensitivities”.
On to `C1COCCN1` [morpholine], for which, in the assay with P. rhodozyma [3], the “color of the colonies” value is “did visually change the color of the colonies” and the growth result was “did not impair growth”.
Turning to `C=C(C)[C@H]1Cc2c(ccc3c2O[C@@H]2COc4cc(OC)c(OC)cc4[C@@H]2C3=O)O1` [rotenone], the “influence on pigmentation of P. rhodozyma” value in the assay on P. rhodozyma [3] was “do not seem to significantly influence pigmentation”.
Turning to tunicamycin, the “pigment of resistant mutant” value with P. rhodozyma [1] (8 μg/ml tunicamycin resistant mutant of ATCC 24202, control 270 μg/g) is 610 µg/g.
